Legend:
[1] = system: MDA MB-231 cells; experiment: Proliferation assay (CellTiter-Glo); assay type: cell-based, human
Experimental: Cell viability was measured using CellTiter-Glo^TM (Promega) according to the manufacturer's instructions.

[2] = system: 454 kinases, 35 G protein-coupled receptors, 14 nuclear hormone receptors, and three cytochrome P450 enzymes; experiment: Off-target profiling summary; settings: 35 GPCRs
Experimental: The compound was further profiled against 454 kinases, […], 14 nuclear hormone receptors, and three cytochrome P450 enzyme targets (supplemental Tables 2–4). The only inhibitory activity that was noted (at 98% at 10 μM) targeted the calcium mobilization antagonist mode of hADRα1A, a member of the G protein-coupled receptor family involved in epinephrine signaling.

[3] = biological target: T1, hABL1(F317I) (Homo sapiens, UniProt P00519, F317I); experiment: KINOMEscan; assay type: binding
T1 construct: purchased DiscoverX (KINOMEscan platform)

[4] = biological target: T2, hABL1(pH396P) (Homo sapiens, UniProt P00519, H396P); experiment: KINOMEscan; assay type: binding
T2 construct: purchased DiscoverX (KINOMEscan platform)

[5] = biological target: T3, hACVR1 (Homo sapiens, UniProt Q04771); experiment: KINOMEscan; assay type: binding
T3 construct: purchased DiscoverX (KINOMEscan platform)

[6] = biological target: T4, hACVR1B (Homo sapiens, UniProt P36896); experiment: KINOMEscan; assay type: binding
T4 construct: purchased DiscoverX (KINOMEscan platform)

[7] = biological target: T5, hAXL (Homo sapiens, UniProt P30530); experiment: KINOMEscan; assay type: binding
T5 construct: purchased DiscoverX

[8] = biological target: T6, bacPKNB (Mycobacterium tuberculosis, UniProt P9WI81); experiment: KINOMEscan; assay type: binding
T6 construct: purchased DiscoverX

[9] = biological target: T7, hCSNK1A1L (Homo sapiens, UniProt Q8N752); experiment: KINOMEscan; assay type: binding
T7 construct: purchased DiscoverX (KINOMEscan platform)
T7 sequence (Q8N752 whole entry): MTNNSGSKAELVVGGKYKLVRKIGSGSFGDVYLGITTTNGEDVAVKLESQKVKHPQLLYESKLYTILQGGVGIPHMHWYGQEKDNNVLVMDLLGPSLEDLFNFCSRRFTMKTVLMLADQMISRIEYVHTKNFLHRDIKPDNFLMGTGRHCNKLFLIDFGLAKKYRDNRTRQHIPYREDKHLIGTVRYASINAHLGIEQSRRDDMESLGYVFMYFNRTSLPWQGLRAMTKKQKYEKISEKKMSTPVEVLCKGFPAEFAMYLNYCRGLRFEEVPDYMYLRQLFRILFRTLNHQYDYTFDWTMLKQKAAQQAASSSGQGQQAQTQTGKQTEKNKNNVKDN

[10] = biological target: T8, hDDR2 (Homo sapiens, UniProt Q16832); experiment: KINOMEscan; assay type: binding
T8 construct: purchased DiscoverX (KINOMEscan platform)

[11] = biological target: T9, hEGFR(T790M) (Homo sapiens, UniProt P00533, T790M); experiment: KINOMEscan; assay type: binding
T9 construct: purchased DiscoverX

[12] = biological target: T10, hEPHA7 (Homo sapiens, UniProt Q15375); experiment: KINOMEscan; assay type: binding
T10 construct: purchased DiscoverX
T10 sequence (Q15375 28-998): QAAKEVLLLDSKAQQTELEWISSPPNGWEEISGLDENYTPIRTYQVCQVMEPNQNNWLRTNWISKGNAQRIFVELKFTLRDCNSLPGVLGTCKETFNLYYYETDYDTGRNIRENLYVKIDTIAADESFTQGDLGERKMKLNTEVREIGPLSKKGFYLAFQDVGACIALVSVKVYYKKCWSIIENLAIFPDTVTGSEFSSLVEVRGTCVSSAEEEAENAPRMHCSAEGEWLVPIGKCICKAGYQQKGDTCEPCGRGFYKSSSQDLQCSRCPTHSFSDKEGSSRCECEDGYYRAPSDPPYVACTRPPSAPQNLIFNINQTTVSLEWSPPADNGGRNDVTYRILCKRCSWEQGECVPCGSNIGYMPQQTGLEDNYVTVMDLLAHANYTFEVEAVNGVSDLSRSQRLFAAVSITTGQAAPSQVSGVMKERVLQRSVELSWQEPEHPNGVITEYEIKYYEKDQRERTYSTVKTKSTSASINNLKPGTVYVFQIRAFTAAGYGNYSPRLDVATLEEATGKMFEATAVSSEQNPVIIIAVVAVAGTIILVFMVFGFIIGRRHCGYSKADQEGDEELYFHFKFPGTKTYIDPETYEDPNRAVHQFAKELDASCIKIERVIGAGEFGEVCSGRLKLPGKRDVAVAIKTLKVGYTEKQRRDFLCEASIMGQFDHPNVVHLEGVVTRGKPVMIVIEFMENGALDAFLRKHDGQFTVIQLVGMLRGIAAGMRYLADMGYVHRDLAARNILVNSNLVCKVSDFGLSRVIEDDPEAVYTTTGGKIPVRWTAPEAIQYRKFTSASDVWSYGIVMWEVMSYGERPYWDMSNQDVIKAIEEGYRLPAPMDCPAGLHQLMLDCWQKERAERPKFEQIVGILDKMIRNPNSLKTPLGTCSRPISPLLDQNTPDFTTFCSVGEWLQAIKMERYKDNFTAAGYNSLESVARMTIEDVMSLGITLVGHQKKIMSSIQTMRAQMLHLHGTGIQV

[13] = biological target: T11, hEPHB4 (Homo sapiens, UniProt P54760); experiment: KINOMEscan; assay type: binding
T11 construct: purchased DiscoverX

[14] = biological target: T12, hFER (Homo sapiens, UniProt P16591); experiment: KINOMEscan; assay type: binding
T12 construct: purchased DiscoverX
T12 sequence (P16591 whole entry): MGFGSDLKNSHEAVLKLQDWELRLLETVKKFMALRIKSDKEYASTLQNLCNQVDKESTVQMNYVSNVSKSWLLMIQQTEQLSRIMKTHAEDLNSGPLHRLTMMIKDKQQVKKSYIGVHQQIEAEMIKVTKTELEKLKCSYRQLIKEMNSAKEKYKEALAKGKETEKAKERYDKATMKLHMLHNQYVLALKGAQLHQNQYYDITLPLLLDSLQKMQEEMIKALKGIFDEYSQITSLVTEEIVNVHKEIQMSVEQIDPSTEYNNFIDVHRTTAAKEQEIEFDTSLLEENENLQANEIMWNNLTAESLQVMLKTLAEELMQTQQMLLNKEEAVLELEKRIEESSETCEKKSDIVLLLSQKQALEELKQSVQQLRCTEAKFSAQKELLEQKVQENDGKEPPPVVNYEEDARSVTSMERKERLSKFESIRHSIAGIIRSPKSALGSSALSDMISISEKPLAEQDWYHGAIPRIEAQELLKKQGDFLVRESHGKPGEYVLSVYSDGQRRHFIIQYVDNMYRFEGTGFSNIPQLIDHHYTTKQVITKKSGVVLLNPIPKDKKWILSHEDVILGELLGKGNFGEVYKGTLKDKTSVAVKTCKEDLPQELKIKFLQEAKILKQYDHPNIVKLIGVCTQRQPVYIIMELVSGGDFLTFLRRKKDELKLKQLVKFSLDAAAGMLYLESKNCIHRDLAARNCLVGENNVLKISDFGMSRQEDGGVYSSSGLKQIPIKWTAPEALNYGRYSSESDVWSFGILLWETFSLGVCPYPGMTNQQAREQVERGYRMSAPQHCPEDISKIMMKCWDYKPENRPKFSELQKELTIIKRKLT

[15] = biological target: T13, hFES (Homo sapiens, UniProt P07332); experiment: KINOMEscan; assay type: binding
T13 construct: purchased DiscoverX
T13 sequence (P07332 whole entry): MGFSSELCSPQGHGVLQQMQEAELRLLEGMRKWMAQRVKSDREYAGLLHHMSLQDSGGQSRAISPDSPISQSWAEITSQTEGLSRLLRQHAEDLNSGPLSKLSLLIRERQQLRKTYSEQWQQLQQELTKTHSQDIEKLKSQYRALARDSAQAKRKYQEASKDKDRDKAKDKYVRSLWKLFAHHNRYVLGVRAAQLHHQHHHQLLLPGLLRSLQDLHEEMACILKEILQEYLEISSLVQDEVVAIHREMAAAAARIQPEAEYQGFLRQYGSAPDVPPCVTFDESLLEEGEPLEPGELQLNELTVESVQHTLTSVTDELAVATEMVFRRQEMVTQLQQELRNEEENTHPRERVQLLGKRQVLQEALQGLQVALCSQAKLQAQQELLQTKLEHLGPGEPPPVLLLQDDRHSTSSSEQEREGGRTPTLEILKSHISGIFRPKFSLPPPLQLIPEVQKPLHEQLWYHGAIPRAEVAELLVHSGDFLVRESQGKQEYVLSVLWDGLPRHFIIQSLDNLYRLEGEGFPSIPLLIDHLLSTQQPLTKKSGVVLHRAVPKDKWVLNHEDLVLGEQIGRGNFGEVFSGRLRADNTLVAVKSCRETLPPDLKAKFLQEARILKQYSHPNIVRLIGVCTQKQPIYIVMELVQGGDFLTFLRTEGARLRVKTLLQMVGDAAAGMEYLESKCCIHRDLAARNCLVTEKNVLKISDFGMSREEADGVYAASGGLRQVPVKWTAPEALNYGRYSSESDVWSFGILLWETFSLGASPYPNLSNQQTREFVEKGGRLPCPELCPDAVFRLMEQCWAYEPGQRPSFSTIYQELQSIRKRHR

[16] = biological target: T14, hHPK1 (Homo sapiens, UniProt Q92918); experiment: KINOMEscan; assay type: binding
T14 construct: purchased DiscoverX (KINOMEscan panel)
T14 sequence (Q92918 whole entry): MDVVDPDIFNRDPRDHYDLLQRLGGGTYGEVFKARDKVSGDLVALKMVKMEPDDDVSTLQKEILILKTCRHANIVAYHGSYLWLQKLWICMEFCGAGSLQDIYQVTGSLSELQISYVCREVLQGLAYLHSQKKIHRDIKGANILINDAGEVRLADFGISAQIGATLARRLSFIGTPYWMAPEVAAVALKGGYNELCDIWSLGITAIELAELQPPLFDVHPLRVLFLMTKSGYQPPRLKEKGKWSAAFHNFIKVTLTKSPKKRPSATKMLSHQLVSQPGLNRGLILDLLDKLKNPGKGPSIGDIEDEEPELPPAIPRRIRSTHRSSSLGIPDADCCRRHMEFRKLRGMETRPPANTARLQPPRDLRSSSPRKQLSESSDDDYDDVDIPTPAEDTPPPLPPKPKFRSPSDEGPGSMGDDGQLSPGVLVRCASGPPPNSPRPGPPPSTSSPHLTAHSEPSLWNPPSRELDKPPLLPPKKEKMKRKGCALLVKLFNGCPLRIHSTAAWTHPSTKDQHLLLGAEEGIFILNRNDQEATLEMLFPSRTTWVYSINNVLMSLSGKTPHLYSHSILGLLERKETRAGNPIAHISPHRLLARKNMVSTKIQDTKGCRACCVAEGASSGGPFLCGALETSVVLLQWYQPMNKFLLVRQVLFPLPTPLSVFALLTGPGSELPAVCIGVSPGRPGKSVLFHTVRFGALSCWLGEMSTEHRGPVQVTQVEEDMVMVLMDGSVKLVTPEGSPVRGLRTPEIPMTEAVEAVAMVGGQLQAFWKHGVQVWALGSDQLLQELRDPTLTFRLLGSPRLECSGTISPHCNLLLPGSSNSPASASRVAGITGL

[17] = biological target: T15, hITK (Homo sapiens, UniProt Q08881); experiment: KINOMEscan; assay type: binding
T15 construct: purchased DiscoverX (KINOMEscan panel)
T15 sequence (Q08881 whole entry): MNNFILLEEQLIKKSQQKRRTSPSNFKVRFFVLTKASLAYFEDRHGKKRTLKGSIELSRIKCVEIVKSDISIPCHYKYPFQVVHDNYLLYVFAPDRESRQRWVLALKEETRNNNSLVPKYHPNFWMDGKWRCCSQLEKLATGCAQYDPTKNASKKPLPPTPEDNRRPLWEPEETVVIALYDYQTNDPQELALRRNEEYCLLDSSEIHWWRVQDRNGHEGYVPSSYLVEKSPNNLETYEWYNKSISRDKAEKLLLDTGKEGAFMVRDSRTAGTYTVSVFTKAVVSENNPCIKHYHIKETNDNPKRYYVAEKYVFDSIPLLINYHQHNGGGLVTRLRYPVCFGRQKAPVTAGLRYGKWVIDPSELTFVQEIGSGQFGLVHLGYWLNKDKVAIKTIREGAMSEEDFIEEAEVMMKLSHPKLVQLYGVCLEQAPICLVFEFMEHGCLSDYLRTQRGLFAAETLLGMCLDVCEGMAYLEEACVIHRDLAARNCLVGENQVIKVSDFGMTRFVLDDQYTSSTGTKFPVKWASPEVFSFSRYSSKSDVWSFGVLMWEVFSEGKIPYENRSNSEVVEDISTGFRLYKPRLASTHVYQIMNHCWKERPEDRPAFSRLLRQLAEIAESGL

[18] = biological target: T16, hKIT(D816H) (Homo sapiens, UniProt P10721, D816H); experiment: KINOMEscan; assay type: binding
T16 construct: purchased DiscoverX (KINOMEscan panel)

[19] = biological target: T17, hMAP3K15 (Homo sapiens, UniProt Q6ZN16); experiment: KINOMEscan; assay type: binding
T17 construct: purchased DiscoverX (KINOMEscan platform)

[20] = biological target: T18, hPYK2 (Homo sapiens, UniProt Q14289); experiment: KINOMEscan; assay type: binding
T18 construct: purchased DiscoverX

[21] = biological target: T19, hRET (Homo sapiens, UniProt P07949); experiment: KINOMEscan; assay type: binding
T19 construct: purchased DiscoverX (KINOMEscan platform)

[22] = biological target: T20, hRET(V804L) (Homo sapiens, UniProt P07949, V804L); experiment: KINOMEscan; assay type: binding
T20 construct: purchased DiscoverX (KINOMEscan platform)

[23] = biological target: T21, hRIOK1 (Homo sapiens, UniProt Q9BRS2); experiment: KINOMEscan; assay type: binding
T21 construct: purchased DiscoverX (KINOMEscan platform)

[24] = biological target: T22, hRSK2(Kin.Dom.2-C-term) (Homo sapiens, UniProt P51812); experiment: KINOMEscan; assay type: binding
T22 construct: hRSK2(Kin.Dom.2-C-term); purchased DiscoverX (KINOMEscan platform)

[25] = biological target: T23, hSYK (Homo sapiens, UniProt P43405); experiment: KINOMEscan; assay type: binding
T23 construct: purchased DiscoverX (KINOMEscan platform)

[26] = biological target: T24, hLXRα (Homo sapiens, UniProt Q13133); experiment: Nuclear hormone receptor assay (Eurofins-CEREP); settings: read-out: Relative IC50
T24 construct: Eurofins-CEREP
T24 sequence (Q13133 whole entry): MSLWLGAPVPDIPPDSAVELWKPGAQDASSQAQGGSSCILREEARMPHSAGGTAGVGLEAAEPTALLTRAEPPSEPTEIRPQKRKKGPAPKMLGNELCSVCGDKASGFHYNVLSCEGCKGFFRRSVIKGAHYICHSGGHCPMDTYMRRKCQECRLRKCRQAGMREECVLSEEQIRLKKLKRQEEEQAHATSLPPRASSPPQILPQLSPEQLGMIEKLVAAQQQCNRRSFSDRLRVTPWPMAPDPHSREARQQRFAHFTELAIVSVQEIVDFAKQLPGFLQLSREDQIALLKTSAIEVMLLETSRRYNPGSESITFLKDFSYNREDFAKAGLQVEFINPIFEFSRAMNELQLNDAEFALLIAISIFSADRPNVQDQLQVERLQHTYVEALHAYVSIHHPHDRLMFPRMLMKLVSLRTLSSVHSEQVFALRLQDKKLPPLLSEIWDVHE

[27] = biological target: T25, hM2 (Homo sapiens, UniProt P08172); experiment: β-arrestin Antagonist (Eurofins-CEREP); settings: read-out: % Effect, Inhibition
T25 sequence (P08172 1-466): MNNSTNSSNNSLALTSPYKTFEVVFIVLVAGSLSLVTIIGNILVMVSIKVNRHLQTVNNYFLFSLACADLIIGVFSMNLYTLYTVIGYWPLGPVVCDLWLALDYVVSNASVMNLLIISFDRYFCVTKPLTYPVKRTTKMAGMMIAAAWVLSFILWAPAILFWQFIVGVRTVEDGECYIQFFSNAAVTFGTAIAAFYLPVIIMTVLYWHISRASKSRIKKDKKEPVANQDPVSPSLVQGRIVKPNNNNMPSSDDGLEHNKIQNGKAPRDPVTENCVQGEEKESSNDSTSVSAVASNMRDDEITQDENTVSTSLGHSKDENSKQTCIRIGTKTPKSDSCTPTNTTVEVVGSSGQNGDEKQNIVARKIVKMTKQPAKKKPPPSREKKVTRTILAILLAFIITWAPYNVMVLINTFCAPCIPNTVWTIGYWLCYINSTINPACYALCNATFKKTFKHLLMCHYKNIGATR

[28] = biological target: hOPRm1 (Homo sapiens, UniProt P35372); experiment: β-arrestin Antagonist (Eurofins-CEREP); settings: read-out: % Effect, Inhibition

Cc1cn(CCN2CCN(c3ccccc3-c3cc(C#N)cc(C(=O)NCCCN4CCCC4)c3)CC2)c2ccccc12 [LLY-507, 3-cyano-5-{2-[4-[2-(3-methylindol-1-yl)ethyl]piperazin-1-yl]-phenyl}-N-[(3-pyrrolidin-1-yl)propyl]benzamide]
> 5 fold: increase in sensitivity at 7 days compared with 3 to 4-day treatment [1]
> 20 µM: inactive against off-target panels [2] | IC50 [3] | IC50 [4] | IC50 [5] | IC50 [6] | IC50 [7] | IC50 [8] | IC50 [9] | IC50 [10] | IC50 [11] | IC50 [12] | IC50 [13] | IC50 [14] | IC50 [15] | IC50 [16] | IC50 [17] | IC50 [18] | IC50 [19] | IC50 [20] | IC50 [21] | IC50 [22] | IC50 [23] | IC50 [24] | IC50 [25]
-3.9%: inhibition at 1 µM [28]
36.3%: inhibition at 10 µM [27]
> 10 µM: IC50 [26]

— article PMC4447944 (The Journal of Biological Chemistry, 2015)
